Key:
[1] = biological target: T1, human Cot catalytic domain (30-397 amino acids) (Homo sapiens, UniProt P41279); assay: High Throughput Cot Biochemical Assay (KinEASE TR-FRET); settings: Cot biochemical HTRF (KinEASE TR-FRET) assay; read-out: IC50 HTRF
T1 construct: Purified recombinant human Cot catalytic domain (30-397 amino acids) was purchased from Cama Biosciences; purchased Cama Biosciences (so in the source)
Summary of the method: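 Recombinant human Cot catalytic domain (aa 30-397), 5 nM, with 1 μM STK3 peptide and 400 μM ATP in MOPS pH 7.0 buffer with MgOAc, DTT, BSA, NP-40, glycerol, 0.1% DMSO. Phosphorylated XL665-peptide detected by Eu-[…] antibody TR-FRET.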

[2] = system: TNFα production in LPS-stimulated human monocytes; assay: Cot Monocyte TNFα Cell Based Assay; settings: Homo sapiens, Monocyte, TNFα in LPS-stimulated human monocytes; read-out: EC50 TNF
Summary of the method: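 Human monocytes (5,000 cells/well) pretreated with compound for 1 hour at 37° C (0.5% DMSO), then stimulated with 50 pg/ml LPS for 4 hours. Total TNFα measured by TR-FRET after overnight antibody incubation at room temp, expressed as percent of control between unstimulated and stimulated cells.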

T1 sequence (P41279 30-397): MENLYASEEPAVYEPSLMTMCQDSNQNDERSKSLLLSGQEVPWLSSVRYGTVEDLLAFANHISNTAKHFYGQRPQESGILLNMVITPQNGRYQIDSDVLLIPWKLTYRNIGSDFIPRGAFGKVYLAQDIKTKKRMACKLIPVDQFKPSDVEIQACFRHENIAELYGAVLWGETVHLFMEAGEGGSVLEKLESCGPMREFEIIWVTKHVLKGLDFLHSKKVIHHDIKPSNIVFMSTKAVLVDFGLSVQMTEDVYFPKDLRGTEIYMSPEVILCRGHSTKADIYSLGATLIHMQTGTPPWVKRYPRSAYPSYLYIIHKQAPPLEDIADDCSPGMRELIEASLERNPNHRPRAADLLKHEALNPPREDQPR

IC50 [1] [nM]	EC50 [2] [nM]	SMILES
18	307	CC(C)(C)N1CCC(n2cc([C@@H](Nc3cc(F)c4ncc(C#N)c(Nc5ccc(F)c(Cl)c5)c4c3)c3ccc(Cl)cc3)nn2)CC1 [Example 709, (S)-6-(((1-(1-(tert-butyl)piperidin-4-yl)-1H-1,2,3-triazol-4-yl)(4-chlorophenyl)methyl)amino)-4-((3-chloro-4-fluorophenyl)amino)-8-fluoroquinoline-3-carbonitrile]
20	352	CC(C)n1cc([C@@H](Nc2cc(Cl)c3ncc(C#N)c(Nc4ccc(F)c(Cl)c4)c3c2)c2cccc(CN(C)CCN(C)C)c2)nn1 [Example 710, (S)-8-chloro-4-((3-chloro-4-fluorophenyl)amino)-6-(((3-(((2-(dimethylamino)ethyl)(methyl)amino)methyl)phenyl) (1-isopropyl-1H-1,2,3-triazol-4-yl)methyl)amino) quinoline-3-carbonitrile]
46	> 10000	CC(C)n1cc([C@@H](Nc2cc(Cl)c3ncc(C#N)c(Nc4ccc(F)c(Cl)c4)c3c2)c2cccc(CNCCN(C)C)c2)nn1 [Example 711, (S)-8-chloro-4-((3-chloro-4-fluorophenyl)amino)-6-(((3-(((2-(dimethylamino)ethyl)amino)methyl)phenyl)(1-isopropyl-1H-1,2,3-triazol-4-yl)methyl)amino)quinoline-3-carbonitrile]
14	498	CC(C)n1cc([C@@H](Nc2cc(Cl)c3ncc(C#N)c(Nc4ccc(F)c(Cl)c4)c3c2)c2cccc(CN(C)C)c2)nn1 [Example 712, (S)-8-chloro-4-((3-chloro-4-fluorophenyl)amino)-6-(((3-((dimethylamino)methyl)phenyl)(1-isopropyl-1H-1,2,3-triazol-4-yl)methyl)amino)quinoline-3-carbonitrile]
17	358	CC(C)n1cc([C@@H](Nc2cc(Cl)c3ncc(C#N)c(Nc4ccc(F)c(Cl)c4)c3c2)c2cccc(CO)c2)nn1 [Example 713, (S)-8-chloro-4-((3-chloro-4-fluorophenyl)amino)-6-(((3-(hydroxymethyl)phenyl)(1-isopropyl-1H-1,2,3-triazol-4-yl)methyl)amino)quinoline-3-carbonitrile]
131	1700	CC(C)(C)N1CCC(n2cc([C@@H](Nc3cc(Cl)c4ncc(C#N)c(NC5CCCC5)c4c3)c3ccc(Cl)cc3)nn2)CC1 [Example 714, (S)-6-(((1-(1-(tert-butyl)piperidin-4-yl)-1H-1,2,3-triazol-4-yl)(4-chlorophenyl)methyl)amino)-8-chloro-4-(cyclopentylamino)quinoline-3-carbonitrile]
62	2080	CC(C)(C)N1CCC(n2cc([C@@H](Nc3cc(Cl)c4ncc(C#N)c(NC5CCCCC5)c4c3)c3ccc(Cl)cc3)nn2)CC1 [Example 715, (S)-6-(((1-(1-(tert-butyl)piperidin-4-yl)-1H-1,2,3-triazol-4-yl)(4-chlorophenyl)methyl)amino)-8-chloro-4-(cyclohexylamino)quinoline-3-carbonitrile]
60	847	CC(C)(C)N1CCC(n2cc([C@@H](Nc3cc(Cl)c4ncc(C#N)c(NC5CCCCCC5)c4c3)c3ccc(Cl)cc3)nn2)CC1 [Example 716, (S)-6-(((1-(1-(tert-butyl)piperidin-4-yl)-1H-1,2,3-triazol-4-yl)(4-chlorophenyl)methyl)amino)-8-chloro-4-(cycloheptylamino)quinoline-3-carbonitrile]
41	2580	CC(C)(C)N1CCC(n2cc([C@@H](Nc3cc(Cl)c4ncc(C#N)c(Nc5ccc(F)c(Cl)c5)c4c3)c3ccccc3CN3CCOCC3)nn2)CC1 [Example 719, (S)-6-(((1-(1-(tert-butyl)piperidin-4-yl)-1H-1,2,3-triazol-4-yl)(2-(morpholinomethyl)phenyl)methyl)amino)-8-chloro-4-((3-chloro-4-fluorophenyl)amino)quinoline-3-carbonitrile]
72	3990	CN(C)Cc1ccccc1[C@H](Nc1cc(Cl)c2ncc(C#N)c(Nc3ccc(F)c(Cl)c3)c2c1)c1cn(C2CCN(C(C)(C)C)CC2)nn1 [Example 720, (S)-6-(((1-(1-(tert-butyl)piperidin-4-yl)-1H-1,2,3-triazol-4-yl)(2-((dimethylamino)methyl)phenyl)methyl)amino)-8-chloro-4-((3-chloro-4-fluorophenyl)amino)quinoline-3-carbonitrile]
21	470	N#Cc1cnc2c(Cl)cc(N[C@@H](c3ccccc3)c3cn(-c4cccnc4)nn3)cc2c1Nc1ccc(F)c(Cl)c1 [Example 721, (S)-8-chloro-4-((3-chloro-4-fluorophenyl)amino)-6-((phenyl (1-(pyridin-3-yl)-1H-1,2,3-triazol-4-yl)methyl)amino)quinoline-3-carbonitrile]
4	76	CC(C)(C)N1CCC(n2cc([C@@H](Nc3cc(Cl)c4ncc(C#N)c(Nc5ccc(F)c(Cl)c5)c4c3)c3ccccc3CO)nn2)CC1 [Example 722, (S)-6-(((1-(1-(tert-butyl)piperidin-4-yl)-1H-1,2,3-triazol-4-yl)(2-(hydroxymethyl)phenyl)methyl)amino)-8-chloro-4-((3-chloro-4-fluorophenyl)amino)quinoline-3-carbonitrile]
217	1300	N#Cc1cnc2c(Cl)cc(N[C@@H](c3ccc(Cl)cc3)c3cn(C4CCN(C5COC5)CC4)nn3)cc2c1Nc1ccc(F)c(F)c1 [Example 723, (S)-8-chloro-6-(((4-chlorophenyl)(1-(1-(oxetan-3-yl)piperidin-4-yl)-1H-1,2,3-triazol-4-yl)methyl)amino)-4-((3,4-difluorophenyl)amino)quinoline-3-carbonitrile]
87	1400	COCCOCCn1cc([C@@H](Nc2cc(Cl)c3ncc(C#N)c(Nc4ccc(F)c(F)c4)c3c2)c2ccc(Cl)cc2)nn1 [Example 724, (S)-8-chloro-6-(((4-chlorophenyl)(1-(2-(2-methoxyethoxy)ethyl)-1H-1,2,3-triazol-4-yl)methyl)amino)-4-((3,4-difluorophenyl)amino) quinoline-3-carbonitrile]
3	178	CC(C)(O)c1cccc([C@H](Nc2cc(Cl)c3ncc(C#N)c(Nc4ccc(F)c(Cl)c4)c3c2)c2cn(C3CCN(C(C)(C)C)CC3)nn2)c1 [Example 727, (S)-6-(((1-(1-(tert-butyl)piperidin-4-yl)-1H-1,2,3-triazol-4-yl)(3-(2-hydroxypropan-2-yl)phenyl)methyl)amino)-8-chloro-4-((3-chloro-4-fluorophenyl)amino)quinoline-3-carbonitrile]
3	124	COC(=O)c1cccc([C@H](Nc2cc(Cl)c3ncc(C#N)c(Nc4ccc(F)c(Cl)c4)c3c2)c2cn(C3CCN(C(C)(C)C)CC3)nn2)c1 [Example 728, methyl (S)-3-((1-(1-(tert-butyl)piperidin-4-yl)-1H-1,2,3-triazol-4-yl)((8-chloro-4-((3-chloro-4-fluorophenyl)amino)-3-cyanoquinolin-6-yl)amino)methyl)benzoate]
32	532	N#Cc1cnc2c(Cl)cc(N[C@@H](c3ccccc3)c3cn(Cc4ccccn4)nn3)cc2c1Nc1ccc(F)c(Cl)c1 [Example 729, (S)-8-chloro-4-((3-chloro-4-fluorophenyl)amino)-6-((phenyl (1-(pyridin-2-ylmethyl)-1H-1,2,3-triazol-4-yl)methyl)amino)quinoline-3-carbonitrile]
78	4450	CC(C)(C)N1CCC(n2cc([C@@H](Nc3cc(Cl)c4ncc(C#N)c(Nc5ccc(Cl)c(Cl)c5F)c4c3)c3ccc(Cl)cc3)nn2)CC1 [Example 731, (S)-6-(((1-(1-(tert-butyl)piperidin-4-yl)-1H-1,2,3-triazol-4-yl)(4-chlorophenyl)methyl)amino)-8-chloro-4-((3,4-dichloro-2-fluorophenyl)amino)quinoline-3-carbonitrile]
6	884	CC(C)(C)N1CCC(n2cc([C@@H](Nc3cc(Cl)c4ncc(C#N)c(Nc5ccc(F)c(Cl)c5)c4c3)c3cccc(CN4CCOCC4)c3)nn2)CC1 [Example 733, (S)-6-(((1-(1-(tert-butyl)piperidin-4-yl)-1H-1,2,3-triazol-4-yl)(3-(morpholinomethyl)phenyl)methyl)amino)-8-chloro-4-((3-chloro-4-fluorophenyl)amino)quinoline-3-carbonitrile]
151	3900	Cc1nnc(C(Nc2cc(Cl)c3ncc(C#N)c(Nc4ccc(F)c(Cl)c4)c3c2)c2ccc(F)cc2)o1 (stereo not drawn) [Example 734, 8-chloro-4-((3-chloro-4-fluorophenyl)amino)-6-(((4-fluorophenyl)(5-methyl-1,3,4-oxadiazol-2-yl)methyl)amino)quinoline-3-carbonitrile]
41	376	CN1CC(n2cc([C@@H](Nc3cc(Cl)c4ncc(C#N)c(Nc5ccc(F)c(Cl)c5)c4c3)c3ccccc3)nn2)CC(F)(F)C1 (stereo partly drawn) [Example 736, 8-chloro-4-((3-chloro-4-fluorophenyl)amino)-6-(((1S)-(1-(5,5-difluoro-1-methylpiperidin-3-yl)-1H-1,2,3-triazol-4-yl)(phenyl)methyl)amino) quinoline-3-carbonitrile]

From US10316017B2, “COT modulators and methods of use thereof” (Gilead Sciences, Inc., priority 2015, dated 2019)
